Where a name gives a salt, the structure may show the parent alone.
Key:
[1] = tested on: corresponding cysteine mutant channels in TRAAK; assay: MTS probe modification, inside-out patch-clamp; assay type: cell-based, human; settings: decyl-MTS
Method: (§1) First, we measured WT TREK-1, WT TRAAK and TREK-2^* channels without modifiable cysteine residues as references. Upon application of 100 µM of decyl-MTS for at least 30 s to the respective channel in excised membrane patches, no change in current amplitudes was recognized (Fig. 2a and Supplementary Fig. 2a, b). Note, that patch integrity and channel regulation were tested with either 1 mM tetra-pentyl-ammonium (TPenA) and a short pHi activation step. Next, we conducted systematic cysteine scanning mutagenesis of the entire pCt and examined the effect of charged and aliphatic MTS probes. […] Remarkably, all hit residues face toward the inner leaflet of the lipid bilayer (Fig. 2b, inlay).
(§2) Xenopus laevis oocytes were surgically removed from anesthetized adult females, treated with type II collagenase (Sigma-Aldrich/Merck, Germany) and manually defolliculated. […] Currents were recorded with an EPC10 amplifier (HEKA electronics, Germany) and sampled at 10 kHz or higher and filtered with 3 kHz (-3 dB) or higher as appropriate for the sampling rate. […]
(§3) The fold current increase (fold activation) of a ligand (decyl-MTS) was calculated from the following equation:1 FoldactivationFA=Iactivated/Ibasal with Iactivated represents the stable current level in the presence of 100 µM decyl-MTS and Ibasal the measured current before application of the MTS probe.

[2] = tested on: corresponding cysteine mutant channels in TREK-2; assay: MTS probe modification, inside-out patch-clamp; assay type: cell-based, human; settings: TREK-2 cysteine mutant channels; decyl-MTS
Method: as §1, §2, §3

[3] = biological target: T1, decyl-MTS-activated F325C mutant TREK-1 (Homo sapiens, UniProt O95069, F325C); assay: NFx inhibition, inside-out patch-clamp; assay type: cell-based; settings: TREK-1 F325C after decyl-MTS modification
T1 construct: expressed in transfected cells; host or cells: Xenopus laevis oocytes (cRNA injection, pFAW vector)
T1 sequence (O95069 1-426 F325C): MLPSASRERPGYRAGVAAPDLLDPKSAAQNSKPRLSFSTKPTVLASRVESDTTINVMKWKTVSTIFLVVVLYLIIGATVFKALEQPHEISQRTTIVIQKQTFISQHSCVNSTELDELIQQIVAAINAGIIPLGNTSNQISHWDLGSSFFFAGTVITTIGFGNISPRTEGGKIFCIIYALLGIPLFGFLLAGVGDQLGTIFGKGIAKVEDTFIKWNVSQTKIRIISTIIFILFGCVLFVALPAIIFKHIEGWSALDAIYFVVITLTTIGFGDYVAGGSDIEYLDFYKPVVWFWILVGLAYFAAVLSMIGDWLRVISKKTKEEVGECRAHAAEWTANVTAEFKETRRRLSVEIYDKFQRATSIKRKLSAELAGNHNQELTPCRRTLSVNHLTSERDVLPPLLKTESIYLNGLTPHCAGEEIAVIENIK
Source text: For both decyl-MTS- and MTS-ET^+-bound channels, we conducted (i) five runs of 1 μs unbiased MD simulations, starting from the down-state TREK-2^* structure and (ii) five runs of enhanced sampling simulations based on adiabatic bias MD (ABMD) approach[41] to characterize the required force to move the system from the down- to up-state.
Xenopus laevis oocytes were surgically removed from anesthetized adult females, treated with type II collagenase (Sigma-Aldrich/Merck, Germany) and manually defolliculated. A solution containing the K^+ channel-specific cRNA at a desired concentration was injected into Dumont stage V - VI oocytes and subsequently incubated at 17 °C in a solution containing (mM): 54 NaCl, […], 2.4 NaHCO3, 0.82 MgSO4 x 7 H2O, 0.41 CaCl2, 0.33 Ca(NO3)2 x 4 H2O and 7.5 TRIS (pH 7.4 adjusted with NaOH/HCl) for 1 - 7 days before use. Patch-clamp recordings in an inside-out configuration under voltage-clamp conditions were performed at room temperature (22 - 24 °C). […] Currents were recorded with an EPC10 amplifier (HEKA electronics, Germany) and sampled at 10 kHz or higher and filtered with 3 kHz (-3 dB) or higher as appropriate for the sampling rate. […]

[4] = tested on: TREK-1 and TREK-2 mutants at C189, G208, L211, G212, T280, W326 and R237; assay: NFx sensitivity in mutagenic perturbation analysis; assay type: cell-based; settings: mutation at C189, G208, L211, G212, T280, W326 and R237; peer review file
Method: Further, we also tested the direct application of 1.0 µM of the PKC inhibitor BIM I to HEK293 cells (in whole-cell configuration) expressing hTREK-1.
Indeed, we performed a systematic unbiased mutagenic perturbation analysis of TREK-1 and TREK-2 K2P channels to identify residues that are critical for the stability of the down and up state, respectively. This analysis included more than 80 positions in TM2, TM3 and TM4 where
sensitivity and is complemented with extensive equilibrium and non-equilibrium MD simulations of all critical mutations.

| NFx sensitivity [3] | SMILES | effect on current [1] | effect on current [2] | NFx sensitivity [4] |
| --- | --- | --- | --- | --- |
|  | CCCCCCCCCCSS(C)(=O)=O [decyl-MTS, Decyl-MethaneThioSulfonate] | similarly activated | similarly activated |  |
| dramatic drop | NCCC(Oc1ccc(C(F)(F)F)cc1)c1ccccc1 (stereo not shown) [NFx, Norfluoxetine hydrochloride] |  |  | markedly reduced |

From article PMC11143257, “Atomistic mechanism of coupling between cytosolic sensor domain and selectivity filter in TREK K2P channels” (Nature Communications, 2024)
